Data from ChEMBL document CHEMBL5576045, “M1/M4 receptors as potential therapeutic treatments for schizophrenia: A comprehensive study” (Bioorg Med Chem, 2024).

Molecular target: T1, Muscarinic acetylcholine receptor M4 (Homo sapiens) (UniProt P08173)
T1 sequence (whole entry): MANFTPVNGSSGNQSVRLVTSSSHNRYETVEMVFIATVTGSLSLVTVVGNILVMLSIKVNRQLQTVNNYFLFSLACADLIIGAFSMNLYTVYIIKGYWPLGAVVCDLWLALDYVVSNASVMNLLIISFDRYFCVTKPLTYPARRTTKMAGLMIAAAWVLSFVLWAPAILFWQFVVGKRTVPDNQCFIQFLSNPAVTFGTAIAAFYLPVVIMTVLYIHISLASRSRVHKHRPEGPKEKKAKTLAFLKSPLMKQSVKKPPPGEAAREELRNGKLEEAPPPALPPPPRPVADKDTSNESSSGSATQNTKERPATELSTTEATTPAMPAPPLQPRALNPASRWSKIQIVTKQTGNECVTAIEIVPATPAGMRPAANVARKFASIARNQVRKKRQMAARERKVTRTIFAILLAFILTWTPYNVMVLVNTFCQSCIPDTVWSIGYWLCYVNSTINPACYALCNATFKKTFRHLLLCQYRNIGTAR
Experiment: Binding affinity to M4 receptor (unknown origin) assessed as fold change in presence of acetylcholine

SMILES: CC1=C(CCO)SC2=Nc3nc(C)ncc3CN21
- fold change (FC): 3
